EP0450515B1, “Haloethyl-substituted steroidal enzyme inhibitors” (MERRELL DOW PHARMACEUTICALS INC., priority 1990, dated 1991)

Target: T1, aromatase (Homo sapiens, UniProt P11511)
T1 construct: aromatase preparation, usually 50-800 »g of microsomal protein per ml of assay buffer; from tissue; host or cells: microsomes
T1 sequence (P11511 1-503): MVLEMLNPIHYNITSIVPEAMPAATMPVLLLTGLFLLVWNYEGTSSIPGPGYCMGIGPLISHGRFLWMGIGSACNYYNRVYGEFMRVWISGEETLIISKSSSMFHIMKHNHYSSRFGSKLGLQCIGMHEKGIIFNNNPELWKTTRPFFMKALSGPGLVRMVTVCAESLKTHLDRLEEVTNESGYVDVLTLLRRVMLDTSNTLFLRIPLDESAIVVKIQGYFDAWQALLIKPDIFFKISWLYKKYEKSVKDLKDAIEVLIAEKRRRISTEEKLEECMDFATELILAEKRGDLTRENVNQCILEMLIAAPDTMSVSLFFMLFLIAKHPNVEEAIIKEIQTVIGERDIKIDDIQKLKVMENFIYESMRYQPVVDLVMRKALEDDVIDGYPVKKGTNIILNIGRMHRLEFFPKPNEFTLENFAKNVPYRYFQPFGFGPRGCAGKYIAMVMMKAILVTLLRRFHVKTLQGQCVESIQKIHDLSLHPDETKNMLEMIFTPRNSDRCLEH
Experiment: time-dependent aromatase inhibition assay (preincubation of inhibitor with enzyme, Kitz-Wilson analysis)
Type: biochemical
Settings: for τ50: half-time of inactivation at infinite inhibitor concentration, Kitz-Wilson plots, time-dependent assay; for kinact/KI: ratio of kcat/Ki (inactivation), index of efficiency of enzyme inactivation
Experimental: In this assay, the inhibitor is preincubated with enzyme prior to assaying for activity in the presence of high substrate levels. A time-related decrease in enzyme activity can be indicative of irreversible binding of the inhibitor with the enzyme.
In the time-dependent assay, an amount of the enzyme inhibitor in 100 »l of the assay buffer described above which will provide assay concentrations which are usually between 1 nM and 10 »M are added to 35 ml centrifuge tubes containing 600 »l of the NADPH generating system. The pre-incubation is started by the addition of 700 »l of aromatase preparation, usually 50-800 »g of microsomal protein per ml of assay buffer. These preparations are mixed using a vortex mixer and incubated for 0, 5, 10, or 20 minutes at 25°C. Then 100 »l of androstenedione (∼6.8 »M) containing 1β-³H androstenedione in assay buffer is added to provide an assay concentration of substrate (0.50 »M) which is at least ten times the Km of androstenedione (0.04 »M). Following vortexing, the enzyme incubation is continued for 10 minutes before being terminated by the addition of chloroform. The amount of radioactivity in the aqueous fraction is determined by scintillation procedures. The enzymatic activity for each concentration of inhibitor at each time period of preincubation is calculated as a percent of the respective vehicle control which is arbitrarily set at 100%. Therefore, the relative present enzyme inhibition is expressed as a percentage: (100 percent minus percent enzyme activity with inhibitor present).
Enzyme kinetic analysis utilized Kitz-Wilson plots for time-dependent assays. These analyses provide estimates of apparent Ki of inactivation which represents the inhibitor concentration required to produce half-maximal rate of enzyme inactivation. The pseudo first-order rate constant for enzyme inactivation (kcat) and the half-time of inactivation (τ₅₀) of infinite inhibitor concentrations were determined.

C[C@]12CC[C@H]3[C@@H](CCC4=CC(=O)CC[C@@]43C(O)CBr)[C@@H]1CCC2=O (single isomer, unassigned; diastereomer 10) [HOCHCH₂Br pure (R) diastereomer, 10-(2-Bromo-1-hydroxyethyl)-estr-4-ene-3,17-dione]
Ki: 0.026 µM
τ50: 4.85 min

C[C@]12CC[C@H]3[C@@H](CCC4=CC(=O)CC[C@@]43C(O)CBr)[C@@H]1CCC2=O (stereo partly drawn) [HOCHCH₂Br (S):(R)::9:1, 10-(2-Bromo-1-hydroxyethyl)-estr-4-ene-3,17-dione]
Ki: 1.13 µM
τ50: 5.33 min

C[C@]12CC[C@H]3[C@@H](CCC4=CC(=O)CC[C@@]43C(O)CCl)[C@@H]1CCC2=O (stereo partly drawn) [HOCHCH₂Cl (R):(S)::9:1, 10-(2-Chloro-1-hydroxyethyl)-estr-4-ene-3,17-dione]
Ki: 0.063 µM
τ50: 3.60 min
kinact/KI: 50700 M⁻¹ s⁻¹

C[C@]12CC[C@H]3[C@@H](CCC4=CC(=O)CC[C@@]43C(O)CI)[C@@H]1CCC2=O (stereo partly drawn) [HOCHCH₂I (R):(S)::9:1, 10-(2-Iodo-1-hydroxyethyl)-estr-4-ene-3,17-dione]
Ki: 0.011 µM
τ50: 2.22 min
kinact/KI: 490000 M⁻¹ s⁻¹

C[C@]12CC[C@H]3[C@@H](CCC4=CC(=O)CC[C@@]43C(=O)CBr)[C@@H]1CCC2=O [O=CCH₂Br, 10-(2-Bromoacetyl)-estr-4-ene-3,17-dione]
Ki: 0.19 µM
τ50: 32.7 min
kinact/KI: 1860 M⁻¹ s⁻¹
